Assay results published in ChEMBL document CHEMBL1806455, “Synthesis, activity and pharmacokinetics of novel antibacterial 15-membered ring macrolones” (Eur J Med Chem, 2011).
In brackets after ≈: the same amount, converted by molar mass.

What was measured:
Staphylococcus aureus [1] = experiment: Antibacterial activity against inducible macrolide-lincosamide-streptogramin B resistant Staphylococcus aureus 90256 by broth microdilution method; type: functional
Streptococcus pyogenes [2] = experiment: Antibacterial activity against efflux-mediated macrolide-resistance Streptococcus pyogenes 2 Finland by broth microdilution method; type: functional
Streptococcus pneumoniae [3] = experiment: Antibacterial activity against inducible macrolide-resistant, constitutive lincosamide, streptogramin-resistant Streptococcus pneumoniae 134 GR M by broth microdilution method; type: functional
Haemophilus influenzae = experiment: Antibacterial activity against Haemophilus influenzae ATCC 49247 by broth microdilution method; type: functional
Streptococcus pyogenes [4] = experiment: Antibacterial activity against macrolide, lincosamide, streptogramin-resistant Streptococcus pyogenes 166 GR-Micro by broth microdilution method; type: functional
Staphylococcus aureus [5] = experiment: Antibacterial activity against erythromycin-sensitive Staphylococcus aureus ATCC 13709 by broth microdilution method; type: functional
Streptococcus pyogenes [6] = experiment: Antibacterial activity against erythromycin-sensitive Streptococcus pyogenes 3565 by broth microdilution method; type: functional
Streptococcus pneumoniae [7] = experiment: Antibacterial activity against erythromycin-sensitive Streptococcus pneumoniae SP030 by broth microdilution method; type: functional
Streptococcus pyogenes [8] = experiment: Antibacterial activity against inducible macrolide-lincosamide-streptogramin B resistant Streptococcus pyogenes Finland 11 by broth microdilution method; type: functional
Rattus norvegicus = experiment: Liver blood flow in Han Wistar rat at 10 mg/kg, iv and 50 mg/kg, po; type: ADME, organism-based; settings: in vivo
Staphylococcus aureus [9] = experiment: Antibacterial activity against constitutive macrolide, lincosamide, streptogramin-resistant Staphylococcus aureus PK2 by broth microdilution method; type: functional
Streptococcus pneumoniae [10] = experiment: Antibacterial activity against constitutive macrolide, lincosamide, streptogramin-resistant Streptococcus pneumoniae 58 spain by broth microdilution method; type: functional
Streptococcus pneumoniae [11] = experiment: Antibacterial activity against efflux-mediated macrolide-resistant Streptococcus pneumoniae Ci137 by broth microdilution method; type: functional
Staphylococcus aureus [12] = experiment: Antibacterial activity against efflux-mediated macrolide-resistant Staphylococcus aureus PK1 by broth microdilution method; type: functional
Moraxella catarrhalis = experiment: Antibacterial activity against Moraxella catarrhalis ATCC 23246 by broth microdilution method; type: functional

Structure (SMILES) | MIC (Staphylococcus aureus [1]) [µg/mL] | MIC (Streptococcus pyogenes [2]) [µg/mL] | MIC (Streptococcus pneumoniae [3]) [µg/mL] | MIC (Haemophilus influenzae) [µg/mL] | MIC (Streptococcus pyogenes [4]) [µg/mL] | MIC (Staphylococcus aureus [5]) [µg/mL] | MIC (Streptococcus pyogenes [6]) [µg/mL] | MIC (Streptococcus pneumoniae [7]) [µg/mL] | MIC (Streptococcus pyogenes [8]) [µg/mL] | LBF (Rattus norvegicus) [%] | MIC (Staphylococcus aureus [9]) [µg/mL] | MIC (Streptococcus pneumoniae [10]) [µg/mL] | MIC (Streptococcus pneumoniae [11]) [µg/mL] | MIC (Staphylococcus aureus [12]) [µg/mL] | MIC (Moraxella catarrhalis) [µg/mL]
CC[C@H]1OC(=O)[C@H](C)[C@@H](O[C@H]2C[C@@](C)(OC)[C@@H](OC(=O)CCOCCOCCNc3cc4c(=O)c(C(=O)O)cn(C5CC5)c4cc3Cl)[C@H](C)O2)[C@H](C)[C@@H](O[C@@H]2O[C@H](C)C[C@H](N(C)C)[C@H]2O)[C@](C)(O)C[C@@H](C)CN(C)[C@H](C)[C@@H](O)[C@]1(C)O | 0.25 (≈ 0.214 µM) | ≤ 0.125 | ≤ 0.125 | 0.5 (≈ 0.427 µM) | ≤ 0.125 | 0.25 (≈ 0.214 µM) | ≤ 0.125 | ≤ 0.125 | ≤ 0.125 | 13 | 16 (≈ 13.7 µM) | ≤ 0.125 | ≤ 0.125 | 0.25 (≈ 0.214 µM) | ≤ 0.125
CC[C@H]1OC(=O)[C@H](C)[C@@H](O[C@H]2C[C@@](C)(OC)[C@@H](OC(=O)CCOCCNc3cc4c(=O)c(C(=O)OCOCCOC)cn(C5CC5)c4cc3Cl)[C@H](C)O2)[C@H](C)[C@@H](O[C@@H]2O[C@H](C)C[C@H](N(C)C)[C@H]2O)[C@](C)(O)C[C@@H](C)CN(C)[C@H](C)[C@@H](O)[C@]1(C)O | 2 (≈ 1.65 µM) | ≤ 0.125 | ≤ 0.125 | 8 (≈ 6.59 µM) | ≤ 0.125 | 1 (≈ 0.824 µM) | ≤ 0.125 | ≤ 0.125 | ≤ 0.125 | – | > 64 | 0.25 (≈ 0.206 µM) | ≤ 0.125 | 2 (≈ 1.65 µM) | 8 (≈ 6.59 µM)
CC[C@H]1OC(=O)[C@H](C)[C@@H](O[C@H]2C[C@@](C)(OC)[C@@H](OC(=O)CCOCCNc3ccc4c(c3)c(=O)c(C(=O)OC(C)C)cn4C3CC3)[C@H](C)O2)[C@H](C)[C@@H](O[C@@H]2O[C@H](C)C[C@H](N(C)C)[C@H]2O)[C@](C)(O)C[C@@H](C)CN(C)[C@H](C)[C@@H](O)[C@]1(C)O | 16 (≈ 14.1 µM) | ≤ 0.125 | ≤ 0.125 | 4 (≈ 3.53 µM) | ≤ 0.125 | 0.5 (≈ 0.441 µM) | ≤ 0.125 | ≤ 0.125 | ≤ 0.125 | – | > 64 | ≤ 0.125 | ≤ 0.125 | 8 (≈ 7.06 µM) | 4 (≈ 3.53 µM)
CCCn1cc(C(=O)O)c(=O)c2cc(NCCOCCOCCC(=O)O[C@H]3[C@H](C)O[C@@H](O[C@H]4[C@H](C)[C@@H](O[C@@H]5O[C@H](C)C[C@H](N(C)C)[C@H]5O)[C@](C)(O)C[C@@H](C)CN(C)[C@H](C)[C@@H](O)[C@](C)(O)[C@@H](CC)OC(=O)[C@@H]4C)C[C@@]3(C)OC)c(Cl)cc21 | 32 (≈ 27.3 µM) | ≤ 0.125 | 1 (≈ 0.853 µM) | 4 (≈ 3.41 µM) | 1 (≈ 0.853 µM) | 0.25 (≈ 0.213 µM) | ≤ 0.125 | ≤ 0.125 | ≤ 0.125 | – | > 64 | ≤ 0.125 | ≤ 0.125 | 0.25 (≈ 0.213 µM) | 0.5 (≈ 0.427 µM)
CC[C@H]1OC(=O)[C@H](C)[C@@H](O[C@H]2C[C@@](C)(OC)[C@@H](OC(=O)CCOCCNc3cc4c(=O)c(C(=O)OCCN5CCCC5)cn(C5CC5)c4cc3Cl)[C@H](C)O2)[C@H](C)[C@@H](O[C@@H]2O[C@H](C)C[C@H](N(C)C)[C@H]2O)[C@](C)(O)C[C@@H](C)CN(C)[C@H](C)[C@@H](O)[C@]1(C)O | 1 (≈ 0.818 µM) | ≤ 0.125 | ≤ 0.125 | 4 (≈ 3.27 µM) | ≤ 0.125 | 0.25 (≈ 0.204 µM) | ≤ 0.125 | ≤ 0.125 | ≤ 0.125 | – | > 64 | ≤ 0.125 | ≤ 0.125 | ≤ 0.125 | ≤ 0.125
CC[C@H]1OC(=O)[C@H](C)[C@@H](O[C@H]2C[C@@](C)(OC)[C@@H](OC(=O)CCOCCNc3cc4c(=O)c(C(=O)OCOC(=O)C(C)(C)C)cn(C5CC5)c4cc3Cl)[C@H](C)O2)[C@H](C)[C@@H](O[C@@H]2O[C@H](C)C[C@H](N(C)C)[C@H]2O)[C@](C)(O)C[C@@H](C)CN(C)[C@H](C)[C@@H](O)[C@]1(C)O | 4 (≈ 3.23 µM) | ≤ 0.125 | ≤ 0.125 | 1 (≈ 0.806 µM) | ≤ 0.125 | 1 (≈ 0.806 µM) | ≤ 0.125 | ≤ 0.125 | ≤ 0.125 | – | > 64 | 0.5 (≈ 0.403 µM) | ≤ 0.125 | 2 (≈ 1.61 µM) | 2 (≈ 1.61 µM)
CC[C@H]1OC(=O)[C@H](C)[C@@H](O[C@H]2C[C@@](C)(OC)[C@@H](OC(=O)CCOCCNc3ccc4c(c3)c(=O)c(C(=O)O)cn4C3CC3)[C@H](C)O2)[C@H](C)[C@@H](O[C@@H]2O[C@H](C)C[C@H](N(C)C)[C@H]2O)[C@](C)(O)C[C@@H](C)CN(C)[C@H](C)[C@@H](O)[C@]1(C)O | 0.5 (≈ 0.458 µM) | ≤ 0.125 | 0.25 (≈ 0.229 µM) | 1 (≈ 0.916 µM) | ≤ 0.125 | 0.5 (≈ 0.458 µM) | ≤ 0.125 | ≤ 0.125 | ≤ 0.125 | – | 32 (≈ 29.3 µM) | ≤ 0.125 | ≤ 0.125 | 1 (≈ 0.916 µM) | 0.5 (≈ 0.458 µM)
CC[C@H]1OC(=O)[C@H](C)[C@@H](O[C@H]2C[C@@](C)(OC)[C@@H](OC(=O)CCOCCOc3ccc4c(c3)c(=O)c(C(=O)OC(C)C)cn4C3CC3)[C@H](C)O2)[C@H](C)[C@@H](O[C@@H]2O[C@H](C)C[C@H](N(C)C)[C@H]2O)[C@](C)(O)C[C@@H](C)CN(C)[C@H](C)[C@@H](O)[C@]1(C)O | 32 (≈ 28.2 µM) | ≤ 0.125 | ≤ 0.125 | 4 (≈ 3.53 µM) | ≤ 0.125 | 1 (≈ 0.882 µM) | ≤ 0.125 | ≤ 0.125 | ≤ 0.125 | – | > 64 | ≤ 0.125 | ≤ 0.125 | 16 (≈ 14.1 µM) | 2 (≈ 1.76 µM)
CC[C@H]1OC(=O)[C@H](C)[C@@H](O[C@H]2C[C@@](C)(OC)[C@@H](O)[C@H](C)O2)[C@H](C)[C@@H](O[C@@H]2O[C@H](C)C[C@H](N(C)C)[C@H]2O)[C@](C)(O)C[C@@H](C)CN(C)[C@H](C)[C@@H](O)[C@]1(C)O [AZITHROMYCIN] | > 64 | 8 (≈ 10.7 µM) | > 64 | 1 (≈ 1.34 µM) | > 64 | 0.5 (≈ 0.668 µM) | ≤ 0.125 | ≤ 0.125 | 16 (≈ 21.4 µM) | – | > 64 | > 64 | 8 (≈ 10.7 µM) | 32 (≈ 42.7 µM) | ≤ 0.125
CC[C@H]1OC(=O)[C@H](C)[C@@H](O[C@H]2C[C@@](C)(OC)[C@@H](OC(=O)CCOCCOc3cc4c(=O)c(C(=O)OC(C)C)cn(C5CC5)c4cc3Cl)[C@H](C)O2)[C@H](C)[C@@H](O[C@@H]2O[C@H](C)C[C@H](N(C)C)[C@H]2O)[C@](C)(O)C[C@@H](C)CN(C)[C@H](C)[C@@H](O)[C@]1(C)O | 4 (≈ 3.42 µM) | ≤ 0.125 | 0.5 (≈ 0.428 µM) | 2 (≈ 1.71 µM) | 0.5 (≈ 0.428 µM) | 1 (≈ 0.856 µM) | ≤ 0.125 | ≤ 0.125 | ≤ 0.125 | – | > 64 | 0.25 (≈ 0.214 µM) | ≤ 0.125 | 4 (≈ 3.42 µM) | 0.5 (≈ 0.428 µM)
CC[C@H]1OC(=O)[C@H](C)[C@@H](O[C@H]2C[C@@](C)(OC)[C@@H](OC(=O)CCOCCOCCNc3cc4c(=O)c(C(=O)O)cn(CC)c4cc3Cl)[C@H](C)O2)[C@H](C)[C@@H](O[C@@H]2O[C@H](C)C[C@H](N(C)C)[C@H]2O)[C@](C)(O)C[C@@H](C)CN(C)[C@H](C)[C@@H](O)[C@]1(C)O | ≤ 0.125 | ≤ 0.125 | ≤ 0.125 | 1 (≈ 0.864 µM) | 0.25 (≈ 0.216 µM) | ≤ 0.125 | ≤ 0.125 | ≤ 0.125 | ≤ 0.125 | – | 16 (≈ 13.8 µM) | ≤ 0.125 | ≤ 0.125 | ≤ 0.125 | 0.5 (≈ 0.432 µM)
CC[C@H]1OC(=O)[C@H](C)[C@@H](O[C@H]2C[C@@](C)(OC)[C@@H](OC(=O)CCOCCNc3cc4c(=O)c(C(=O)O)cn(C5CC5)c4cc3Cl)[C@H](C)O2)[C@H](C)[C@@H](O[C@@H]2O[C@H](C)C[C@H](N(C)C)[C@H]2O)[C@](C)(O)C[C@@H](C)CN(C)[C@H](C)[C@@H](O)[C@]1(C)O | 0.25 (≈ 0.222 µM) | ≤ 0.125 | ≤ 0.125 | 0.5 (≈ 0.444 µM) | ≤ 0.125 | ≤ 0.125 | ≤ 0.125 | ≤ 0.125 | ≤ 0.125 | 26 | 32 (≈ 28.4 µM) | ≤ 0.125 | ≤ 0.125 | 0.25 (≈ 0.222 µM) | 0.5 (≈ 0.444 µM)
